Assay results from patent US20240041877A1, “DOSAGE REGIME AND METHOD FOR TREATING PULMONARY ARTERIAL HYPERTENSION” (Altavant Sciences GmbH, priority 2019, published 2024).

Assay: Study KAR5585-101 Part 1 (SAD): plasma pharmacokinetics after a single oral dose of KAR5585, fasting and fed (incl. dose proportionality and food effect)
Details: for AUC(0-inf) / AUC / concentration at 12 h / Cmax / AUC(0-t) / half-life / Tmax: human, plasma, po; for AUC: AUC0-tau
[1] = 400 mg, Geometric Mean, Cohort 3A (Fasting), 400 mg KAR5585 single oral dose, fasting
[2] = 400 mg, Geometric Mean, Cohort 3B (Fed), 400 mg KAR5585 single oral dose, fed
[3] = 400 mg, KAR5417 after 400 mg KAR5585 single oral, fasted, Cohort 3A, Geo. Mean
[4] = 400 mg, KAR5417 after 400 mg KAR5585 single oral, fasted, Cohort 3A, Mean
[5] = 400 mg, KAR5417 after 400 mg KAR5585 single oral, fed, Cohort 3B, Geo. Mean
[6] = 400 mg, KAR5417 after 400 mg KAR5585 single oral, fed, Cohort 3B, Mean
[7] = 700 mg, KAR5417 after 700 mg KAR5585 single oral, fasted, Cohort 4, Geo. Mean
[8] = 700 mg, KAR5417 after 700 mg KAR5585 single oral, fasted, Cohort 4, Mean
[9] = 1200 mg, KAR5417 after 1200 mg KAR5585 single oral, fasted, Cohort 5, Geo. Mean
[10] = 1200 mg, KAR5417 after 1200 mg KAR5585 single oral, fasted, Cohort 5, Mean
[11] = 2000 mg, KAR5417 after 2000 mg KAR5585 single oral, fasted, Cohort 6, Geo. Mean
[12] = 2000 mg, KAR5417 after 2000 mg KAR5585 single oral, fasted, Cohort 6, Mean

Nc1nc(O[C@H](c2ccc(Cl)cc2-c2ccccc2)C(F)(F)F)cc(N2CCC3(CC2)CN[C@H](C(=O)O)C3)n1 [KAR5417, (S)-8-(2-amino-6-((R)-1-(5-chloro-[1,1T-biphenyl]-2-yl)-2,2,2-trifluoroeth-oxy)pyrimidin-4-yl)-2,8-diazaspiro[4.5]decane-3-carboxylic acid]
AUC(0-inf) (400 mg, AUC0-inf, Geometric Mean, Cohort 3A (Fasting), 400 mg KAR5585 single oral dose, fasting): 3280 ng·h/mL | AUC(0-inf) (400 mg, AUC0-inf, Geometric Mean, Cohort 3B (Fed), 400 mg KAR5585 single oral dose, fed): 6630 ng·h/mL | AUC [1]: 3120 ng·h/mL | AUC [2]: 6360 ng·h/mL | AUC [3]: 3120 ng·h/mL | AUC [4]: 3500 ng·h/mL | AUC [5]: 6360 ng·h/mL | AUC [6]: 6440 ng·h/mL | AUC(0-inf) (400 mg, AUC0-∞, KAR5417 after 400 mg KAR5585 single oral, fasted, Cohort 3A, Geo. Mean): 3280 ng·h/mL | AUC(0-inf) (400 mg, AUC0-∞, KAR5417 after 400 mg KAR5585 single oral, fasted, Cohort 3A, Mean): 3650 ng·h/mL | AUC(0-inf) (400 mg, AUC0-∞, KAR5417 after 400 mg KAR5585 single oral, fed, Cohort 3B, Geo. Mean): 6630 ng·h/mL | AUC(0-inf) (400 mg, AUC0-∞, KAR5417 after 400 mg KAR5585 single oral, fed, Cohort 3B, Mean): 6710 ng·h/mL | concentration at 12 h (400 mg, C12, KAR5417 after 400 mg KAR5585 single oral, fasted, Cohort 3A, Geo. Mean): 75.2 ng/mL | concentration at 12 h (400 mg, C12, KAR5417 after 400 mg KAR5585 single oral, fasted, Cohort 3A, Mean): 82.5 ng/mL | concentration at 12 h (400 mg, C12, KAR5417 after 400 mg KAR5585 single oral, fed, Cohort 3B, Geo. Mean): 165 ng/mL | concentration at 12 h (400 mg, C12, KAR5417 after 400 mg KAR5585 single oral, fed, Cohort 3B, Mean): 169 ng/mL | Cmax [1]: 444 ng/mL | Cmax [2]: 831 ng/mL | Cmax [3]: 444 ng/mL | Cmax [4]: 485 ng/mL | Cmax [5]: 831 ng/mL | Cmax [6]: 860 ng/mL | AUC(0-t) (400 mg, Plasma AUC0-96, KAR5417 in plasma, 400 mg (fasted) KAR5585 single oral dose, mean): 3630 ng·h/mL | AUC(0-t) (400 mg, Plasma AUC0-96, KAR5417 in plasma, 400 mg (fed) KAR5585 single oral dose, mean): 6590 ng·h/mL | half-life (400 mg, t1/2, KAR5417 after 400 mg KAR5585 single oral, fasted, Cohort 3A, Geo. Mean): 9.29 h | half-life (400 mg, t1/2, KAR5417 after 400 mg KAR5585 single oral, fasted, Cohort 3A, Mean): 11.3 h | half-life (400 mg, t1/2, KAR5417 after 400 mg KAR5585 single oral, fed, Cohort 3B, Geo. Mean): 19.8 h | half-life (400 mg, t1/2, KAR5417 after 400 mg KAR5585 single oral, fed, Cohort 3B, Mean): 20.5 h | Tmax (400 mg, tmax, KAR5417 after 400 mg KAR5585 single oral, fasted, Cohort 3A, Median): 4 h | Tmax (400 mg, tmax, KAR5417 after 400 mg KAR5585 single oral, fed, Cohort 3B, Median): 4 h | AUC(0-t) (700 mg, AUC0-12, KAR5417 after 700 mg KAR5585 single oral, fasted, Cohort 4, Geo. Mean): 3050 ng·h/mL | AUC(0-t) (700 mg, AUC0-12, KAR5417 after 700 mg KAR5585 single oral, fasted, Cohort 4, Mean): 4350 ng·h/mL | AUC(0-t) (700 mg, AUC0-24, KAR5417 after 700 mg KAR5585 single oral, fasted, Cohort 4, Geo. Mean): 3720 ng·h/mL | AUC(0-t) (700 mg, AUC0-24, KAR5417 after 700 mg KAR5585 single oral, fasted, Cohort 4, Mean): 5310 ng·h/mL | AUC [7]: 3870 ng·h/mL | AUC [8]: 5840 ng·h/mL | AUC(0-inf) (700 mg, AUC0-∞, KAR5417 after 700 mg KAR5585 single oral, fasted, Cohort 4, Geo. Mean): 4170 ng·h/mL | AUC(0-inf) (700 mg, AUC0-∞, KAR5417 after 700 mg KAR5585 single oral, fasted, Cohort 4, Mean): 6020 ng·h/mL | concentration at 12 h (700 mg, C12, KAR5417 after 700 mg KAR5585 single oral, fasted, Cohort 4, Geo. Mean): 93.8 ng/mL | concentration at 12 h (700 mg, C12, KAR5417 after 700 mg KAR5585 single oral, fasted, Cohort 4, Mean): 144 ng/mL | Cmax [7]: 544 ng/mL | Cmax [8]: 778 ng/mL | AUC(0-t) (700 mg, Plasma AUC0-96, KAR5417 in plasma, 700 mg KAR5585 single oral dose, mean): 5990 ng·h/mL | half-life (700 mg, t1/2, KAR5417 after 700 mg KAR5585 single oral, fasted, Cohort 4, Mean): 13.5 h | Tmax (700 mg, tmax, KAR5417 after 700 mg KAR5585 single oral, fasted, Cohort 4, Median): 4 h | AUC(0-t) (1200 mg, AUC0-12, KAR5417 after 1200 mg KAR5585 single oral, fasted, Cohort 5, Geo. Mean): 4580 ng·h/mL | AUC(0-t) (1200 mg, AUC0-12, KAR5417 after 1200 mg KAR5585 single oral, fasted, Cohort 5, Mean): 5350 ng·h/mL | AUC(0-t) (1200 mg, AUC0-24, KAR5417 after 1200 mg KAR5585 single oral, fasted, Cohort 5, Geo. Mean): 5810 ng·h/mL | AUC(0-t) (1200 mg, AUC0-24, KAR5417 after 1200 mg KAR5585 single oral, fasted, Cohort 5, Mean): 6790 ng·h/mL | AUC [9]: 6580 ng·h/mL | AUC [10]: 7700 ng·h/mL | AUC(0-inf) (1200 mg, AUC0-∞, KAR5417 after 1200 mg KAR5585 single oral, fasted, Cohort 5, Geo. Mean): 6880 ng·h/mL | AUC(0-inf) (1200 mg, AUC0-∞, KAR5417 after 1200 mg KAR5585 single oral, fasted, Cohort 5, Mean): 7970 ng·h/mL | concentration at 12 h (1200 mg, C12, KAR5417 after 1200 mg KAR5585 single oral, fasted, Cohort 5, Geo. Mean): 175 ng/mL | concentration at 12 h (1200 mg, C12, KAR5417 after 1200 mg KAR5585 single oral, fasted, Cohort 5, Mean): 213 ng/mL | Cmax [9]: 764 ng/mL | Cmax [10]: 896 ng/mL | AUC(0-t) (1200 mg, Plasma AUC0-96, KAR5417 in plasma, 1200 mg KAR5585 single oral dose, mean): 7910 ng·h/mL | half-life (1200 mg, t1/2, KAR5417 after 1200 mg KAR5585 single oral, fasted, Cohort 5, Geo. Mean): 14 h | half-life (1200 mg, t1/2, KAR5417 after 1200 mg KAR5585 single oral, fasted, Cohort 5, Mean): 14.9 h | Tmax (1200 mg, tmax, KAR5417 after 1200 mg KAR5585 single oral, fasted, Cohort 5, Median): 6 h | AUC(0-t) (2000 mg, AUC0-12, KAR5417 after 2000 mg KAR5585 single oral, fasted, Cohort 6, Geo. Mean): 6550 ng·h/mL | AUC(0-t) (2000 mg, AUC0-12, KAR5417 after 2000 mg KAR5585 single oral, fasted, Cohort 6, Mean): 6910 ng·h/mL | AUC(0-t) (2000 mg, AUC0-24, KAR5417 after 2000 mg KAR5585 single oral, fasted, Cohort 6, Geo. Mean): 8520 ng·h/mL | AUC(0-t) (2000 mg, AUC0-24, KAR5417 after 2000 mg KAR5585 single oral, fasted, Cohort 6, Mean): 9080 ng·h/mL | AUC [11]: 9880 ng·h/mL | AUC [12]: 10600 ng·h/mL | AUC(0-inf) (2000 mg, AUC0-∞, KAR5417 after 2000 mg KAR5585 single oral, fasted, Cohort 6, Geo. Mean): 10200 ng·h/mL | AUC(0-inf) (2000 mg, AUC0-∞, KAR5417 after 2000 mg KAR5585 single oral, fasted, Cohort 6, Mean): 10900 ng·h/mL | concentration at 12 h (2000 mg, C12, KAR5417 after 2000 mg KAR5585 single oral, fasted, Cohort 6, Geo. Mean): 280 ng/mL | concentration at 12 h (2000 mg, C12, KAR5417 after 2000 mg KAR5585 single oral, fasted, Cohort 6, Mean): 354 ng/mL | Cmax [11]: 1030 ng/mL | Cmax [12]: 1080 ng/mL | AUC(0-t) (2000 mg, Plasma AUC0-96, KAR5417 in plasma, 2000 mg KAR5585 single oral dose, mean): 10700 ng·h/mL | half-life (2000 mg, t1/2, KAR5417 after 2000 mg KAR5585 single oral, fasted, Cohort 6, Geo. Mean): 22.1 h | half-life (2000 mg, t1/2, KAR5417 after 2000 mg KAR5585 single oral, fasted, Cohort 6, Mean): 22.6 h | Tmax (2000 mg, tmax, KAR5417 after 2000 mg KAR5585 single oral, fasted, Cohort 6, Median): 5 h | Tmax (median tmax, range across cohorts, single oral 100-2000 mg KAR5585, fasting cohorts): 3 to 6 h | time by which all subjects had measurable concentrations (postdose, single oral KAR5585): ≤ 0.25 h | time concentrations remained above the LLOQ (single 100 mg KAR5585, fasting): up to 12 hours | time concentrations remained above the LLOQ (single 200 mg KAR5585, fasting): ≤ 24 h | time concentrations remained above the LLOQ / measurable (single 400 mg KAR5585, fasting): ≤ 36 h | time concentrations remained above the LLOQ (single 700 mg KAR5585, fasting): ≤ 48 h | time concentrations remained above the LLOQ (single 1200 mg KAR5585, fasting): ≤ 48 h | time concentrations remained above the LLOQ (single 2000 mg KAR5585, fasting): ≤ 72 h | dose proportionality of AUC0-inf and Cmax (power model, 95% CI of slope) (single dose range 100 to 2000 mg KAR5585, fasting): dose proportionality was concluded | plasma concentrations of KAR5417 relative to plasma concentrations of KAR5585 (single oral KAR5585, fasting): approximately 10 fold
